In patent publication US11660270B2, “Nanoparticle compositions” (Indiana University Research and Technology Corporation, priority 2017, dated 2023):

Tests used:
[1] = Solvent screening for dissolving drugs and polymers; assay type: physicochemical; conditions: added to 1 ml of test solvent, vortex; smallest amount of solvent for immediate solubilization
Protocol: The following solvents were compared for use as drug solvents in nanoprecipitation: acetone, ethanol, tetrahydrofuran (THF), acetic acid, acetonitrile, dimethylsulfoxide (DMSO), dimethylformamide (DMF), N-methylpyrrolidone (NMP), methanol, n-propanol and isopropanol.
Chloroform, dichloromethane (DCM), ethanol, acetone, methanol and ethyl acetate were tested as polymer solvents.
Drugs (thyrotropin-releasing hormone (TRH), oxytocin, and luteinizing hormone-releasing hormone (LHRH)) and polymers (polysebacic acid, and PLGA (poly(lactide-co-glycolide)) with either a 1:1 or 3:1 molar ratio of lactide to glycolide) were added to 1 ml of test solvent and stirred vigorously by vortex.

[2] = in vivo; cited from earlier work

| Compound | best solvent for dissolving [1] | plasma half-life [2] |
| --- | --- | --- |
| CC[C@H](C)[C@@H]1NC(=O)[C@H](Cc2ccc(O)cc2)NC(=O)[C@@H](N)CSSC[C@@H](C(=O)N2CCC[C@H]2C(=O)N[C@@H](CC(C)C)C(=O)NCC(N)=O)NC(=O)[C@H](CC(N)=O)NC(=O)[C@H](CCC(N)=O)NC1=O [oxytocin] | acetic acid |  |
| NC(=O)[C@@H]1CCCN1C(=O)[C@H](Cc1cnc[nH]1)NC(=O)[C@@H]1CCC(=O)N1 [TRH, pyroglutamyl-histidyl-proline-amide] | Ethanol | about 8 minutes |
| luteinizing hormone-releasing hormone [LHRH] | acetic acid |  |
